# According to the supplement of paper PMC10307832:
# Tests used:
# Test in all cases: relative viability (nuclei count vs DMSO), 5 days (fraction); higher = more cells survive
# VE-821 + Palbociclib = compound: CS(=O)(=O)c1ccc(-c2cnc(N)c(C(=O)Nc3ccccc3)n2)cc1 [VE-821] + CC(=O)c1c(C)c2cnc(Nc3ccc(N4CCNCC4)cn3)nc2n(C2CCCC2)c1=O [Palbociclib] (partner 0.5 µM)
# Summary of the method: (§1)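 Relative viability was taken as the ratio of nuclei in treated wells to nuclei in vehicle wells. Lung cancer cell lines in 1536-well plates received compounds by pin tool one day after seeding, either one drug alone or a fixed anchor-drug dose plus five library-drug doses (not always all listed) in √10 steps. Nuclei were counted on 4× images after 5 days of treatment, and values are medians of duplicate plates.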
# VE-821 + Pictilisib = compound: CS(=O)(=O)c1ccc(-c2cnc(N)c(C(=O)Nc3ccccc3)n2)cc1 [VE-821] + CS(=O)(=O)N1CCN(Cc2cc3nc(-c4cccc5[nH]ncc45)nc(N4CCOCC4)c3s2)CC1 [Pictilisib] (partner 1 µM)
# Summary of the method: as §1
# Vismodegib + Lapatinib = compound: CS(=O)(=O)c1ccc(C(=O)Nc2ccc(Cl)c(-c3ccccn3)c2)c(Cl)c1 [Vismodegib] + CS(=O)(=O)CCNCc1ccc(-c2ccc3ncnc(Nc4ccc(OCc5cccc(F)c5)c(Cl)c4)c3c2)o1 [Lapatinib] (partner 2 µM)
# Summary of the method: as §1
# Vismodegib + Olaparib = compound: CS(=O)(=O)c1ccc(C(=O)Nc2ccc(Cl)c(-c3ccccn3)c2)c(Cl)c1 [Vismodegib] + O=C(c1cc(Cc2n[nH]c(=O)c3ccccc23)ccc1F)N1CCN(C(=O)C2CC2)CC1 [Olaparib] (partner 8 µM)
# Summary of the method: as §1
Cell Line,relative viability (VE-821 + Palbociclib; first compound 0.08 µM),relative viability (VE-821 + Palbociclib; first compound 0.253 µM),relative viability (VE-821 + Palbociclib; first compound 0.8 µM),relative viability (VE-821 + Palbociclib; first compound 2.53 µM),relative viability (VE-821 + Palbociclib; first compound 8 µM),relative viability (VE-821 + Pictilisib; first compound 0.08 µM),relative viability (VE-821 + Pictilisib; first compound 0.253 µM),relative viability (VE-821 + Pictilisib; first compound 0.8 µM),relative viability (VE-821 + Pictilisib; first compound 2.53 µM),relative viability (VE-821 + Pictilisib; first compound 8 µM),relative viability (Vismodegib + Lapatinib; first compound 0.08 µM),relative viability (Vismodegib + Lapatinib; first compound 0.253 µM),relative viability (Vismodegib + Lapatinib; first compound 0.8 µM),relative viability (Vismodegib + Lapatinib; first compound 2.53 µM),relative viability (Vismodegib + Lapatinib; first compound 8 µM),relative viability (Vismodegib + Olaparib; first compound 0.08 µM),relative viability (Vismodegib + Olaparib; first compound 0.253 µM),relative viability (Vismodegib + Olaparib; first compound 0.8 µM),relative viability (Vismodegib + Olaparib; first compound 2.53 µM),relative viability (Vismodegib + Olaparib; first compound 8 µM)
NCI-H23,0.562,0.49,0.466,0.352,0.274,0.554,0.458,0.506,0.469,0.277,1.1,1.08,1.09,1.11,1.09,0.321,0.277,0.26,0.296,0.409
EMC-BAC-2,0.531,0.491,0.528,0.545,0.524,0.548,0.528,0.583,0.593,0.552,0.891,0.857,0.839,0.933,0.9,0.523,0.488,0.487,0.472,0.526
NCI-H2009,0.204,0.215,0.234,0.18,0.188,0.873,0.754,0.881,0.894,0.664,0.901,0.891,0.892,0.899,0.788,0.679,0.655,0.699,0.662,0.724
NCI-H460,0.203,0.166,0.159,0.0414,0.0344,0.416,0.355,0.288,0.488,0.325,0.903,0.887,1.2,0.823,1.03,0.413,0.409,0.437,0.382,0.439
ABC-1,0.651,0.788,0.601,0.695,0.633,0.902,0.684,0.721,0.751,0.466,–,1.17,1.14,1.02,1.15,0.76,0.788,0.725,1.01,1.09
201T,0.37,0.35,0.355,0.318,0.325,0.723,0.626,0.65,0.698,0.559,1.05,0.998,0.946,1.04,1.02,0.826,0.875,0.798,0.845,0.822
NCI-H1993,0.673,0.619,0.561,0.635,0.537,0.861,0.821,0.822,0.874,0.862,0.745,1.02,0.806,0.788,0.777,0.9,1.03,1.03,1,0.963
RERF-LC-KJ,1.2,1.01,0.973,0.929,0.792,0.496,0.498,0.463,0.547,0.482,0.902,0.848,0.762,0.817,0.826,0.985,0.826,0.785,0.862,0.96
NCI-H1755,0.429,0.437,0.423,0.363,0.424,0.509,0.359,0.416,0.418,0.363,1,1,1.06,1.02,1.04,0.863,0.884,0.897,0.843,0.852
NCI-H1666,0.635,0.685,0.644,0.713,0.621,0.516,0.365,0.399,0.441,0.403,0.72,0.616,0.453,0.558,0.879,0.679,0.747,0.727,0.732,0.749
NCI-H2085,0.481,0.489,0.493,–,0.552,0.461,0.446,0.485,0.483,0.409,0.764,0.809,0.71,0.751,0.81,0.724,0.816,0.775,0.74,0.712
BEN,0.504,0.461,0.469,0.517,0.642,0.707,0.55,0.527,0.591,0.542,0.77,0.718,0.778,0.844,0.733,1.14,1.05,0.889,1.08,1.13
NCI-H661,0.409,0.453,0.415,0.4,0.413,0.379,0.393,0.406,0.39,0.336,0.464,0.488,0.534,0.483,0.493,0.837,0.69,0.745,0.715,0.718
NCI-H1395,0.725,0.658,0.549,0.586,0.516,0.568,0.67,0.652,0.605,0.599,1.06,0.899,0.855,0.927,1.18,0.467,0.553,0.494,0.468,0.491
LCLC-97TM1,0.257,0.238,0.25,0.267,0.255,0.178,0.203,0.229,0.224,0.137,–,–,0.663,–,1.03,0.355,0.416,0.439,0.298,0.565
HCC-827,0.515,0.516,0.405,0.531,0.522,1.1,1.03,1.19,1.24,1.19,0.162,0.163,0.185,0.192,0.214,0.581,0.653,0.728,0.678,0.657
NCI-H1734,0.462,0.363,0.325,0.337,0.532,0.453,0.47,0.433,0.527,0.36,1.04,1.02,0.96,0.957,1,0.574,0.515,0.605,0.59,0.672

Cell Line,relative viability (VE-821 + Palbociclib; first compound 0.08 µM),relative viability (VE-821 + Palbociclib; first compound 0.253 µM),relative viability (VE-821 + Palbociclib; first compound 0.8 µM),relative viability (VE-821 + Palbociclib; first compound 2.53 µM),relative viability (VE-821 + Palbociclib; first compound 8 µM),relative viability (VE-821 + Pictilisib; first compound 0.08 µM),relative viability (VE-821 + Pictilisib; first compound 0.253 µM),relative viability (VE-821 + Pictilisib; first compound 0.8 µM),relative viability (VE-821 + Pictilisib; first compound 2.53 µM),relative viability (VE-821 + Pictilisib; first compound 8 µM),relative viability (Vismodegib + Lapatinib; first compound 0.08 µM),relative viability (Vismodegib + Lapatinib; first compound 0.253 µM),relative viability (Vismodegib + Lapatinib; first compound 0.8 µM),relative viability (Vismodegib + Lapatinib; first compound 2.53 µM),relative viability (Vismodegib + Lapatinib; first compound 8 µM),relative viability (Vismodegib + Olaparib; first compound 0.08 µM),relative viability (Vismodegib + Olaparib; first compound 0.253 µM),relative viability (Vismodegib + Olaparib; first compound 0.8 µM),relative viability (Vismodegib + Olaparib; first compound 2.53 µM),relative viability (Vismodegib + Olaparib; first compound 8 µM)
NCI-H1651,0.523,0.547,0.502,0.565,0.519,0.648,0.584,0.602,0.557,0.585,0.869,0.867,0.852,0.83,0.89,0.176,0.192,0.188,0.182,0.204
NCI-H2170,0.432,0.414,0.381,0.45,0.32,0.319,0.289,0.332,0.4,0.293,0.258,0.271,0.26,0.307,0.28,0.624,0.549,0.657,0.581,0.584
NCI-H1975,0.601,0.473,0.349,0.607,0.415,0.312,0.216,0.298,0.267,0.26,0.848,0.819,0.966,0.803,0.946,0.736,0.788,0.788,0.83,0.791
NCI-H1437,0.305,0.262,0.36,0.335,0.284,0.448,0.352,0.458,0.396,0.3,0.741,0.791,0.783,0.816,0.762,0.633,0.607,0.653,0.63,0.598
HOP-62,0.508,0.459,0.471,0.463,0.461,0.689,0.785,0.807,0.944,0.516,0.981,0.891,0.934,1.04,0.926,0.403,0.47,0.387,0.396,0.345
NCI-H2405,0.533,0.496,0.541,0.558,0.408,0.468,0.388,0.431,0.446,0.355,–,1.09,0.937,0.913,1.11,0.856,0.909,0.823,0.833,0.875
SK-MES-1,0.339,0.345,0.323,0.296,0.287,0.4,0.389,0.423,0.337,0.372,0.498,0.475,0.404,0.484,0.499,0.701,0.656,0.62,0.707,0.685
LC-2-ad,0.557,0.473,0.559,0.504,0.514,0.704,0.392,0.545,0.514,0.373,0.917,0.963,0.993,0.943,0.954,0.681,0.734,0.686,0.658,0.716
NCI-H1944,0.408,0.325,0.256,0.354,0.236,0.364,0.325,0.348,0.339,0.294,0.925,0.746,0.801,0.79,0.972,0.414,0.404,0.398,–,0.441
NCI-H322M,0.446,0.462,0.463,0.483,0.443,0.549,–,0.49,0.608,0.422,0.631,0.646,0.519,0.565,0.572,0.753,0.679,0.695,0.704,0.776
HCC-366,0.668,0.378,0.303,0.0939,0.0558,0.152,0.252,0.0721,0.127,0.101,1.08,1.01,1.1,1.01,1,0.343,0.364,0.378,0.431,0.372
HCC-78,0.491,0.453,0.482,0.489,0.461,0.207,0.237,0.229,0.22,0.206,0.278,0.646,0.667,0.701,0.746,0.676,0.79,0.639,0.755,0.844
CAL-12T,0.571,0.373,0.472,0.51,0.308,0.479,0.394,0.448,0.427,0.314,–,0.723,0.578,0.562,0.75,0.81,0.691,0.411,0.757,0.713
NCI-H2228,0.885,0.762,0.981,1.03,0.547,0.401,0.414,0.585,0.566,0.358,1.16,1.19,1.03,1.05,1.02,0.596,0.796,0.56,0.502,0.477
EKVX,0.458,0.361,0.341,0.429,0.4,0.509,0.412,0.451,0.411,0.356,0.21,0.223,0.164,0.243,0.197,–,0.737,0.818,0.778,0.866
HARA,0.227,0.29,0.239,0.279,0.299,0.509,0.294,0.408,0.401,0.477,0.858,0.713,0.662,0.797,0.634,0.786,–,0.945,0.856,0.943
